From PubChem BioAssay AID248 (DTP/NCI, 2004) come the findings set out here.

Several values for one entry are separate records, joined by “and”; a condition that tells them apart may be missing. Identical values can stand only once. Inconclusive results and toxic doses are left out.

The test system of this assay is L1210 leukemia ip in BDF1 mice, survival T/C. The assay is described as follows: NCI In Vivo Anticancer Drug Screen. Data for tumor model L1210 Leukemia (intraperitoneal) in B6D2F1 (BDF1) mice. The note with it: endpoint: mean survival time, higher = longer survival. The method, boiled down:
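Ratio derived from survival: compound-dosed mice over vehicle-dosed mice, all bearing a transplantable tumor.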

The mark [1] stands for this setting: dose: 100.0 mg/kg/injection, schedule: Q04DX003 (ip), vehicle: saline with Tween-80.
Setting [2] is: dose: 200.0 mg/kg/injection, schedule: Q04DX003 (ip), vehicle: saline with Tween-80.
[3] abbreviates: dose: 400.0 mg/kg/injection, schedule: Q04DX003 (ip), vehicle: saline with Tween-80.
Setting [4] is: dose: 100.0 mg/kg/injection, schedule: Q01DX001 (ip), vehicle: saline with Tween-80.
The mark [5] stands for this setting: dose: 200.0 mg/kg/injection, schedule: Q01DX001 (ip), vehicle: saline with Tween-80.
The mark [6] stands for this setting: dose: 200.0 mg/kg/injection, schedule: Q01DX009 (ip), vehicle: saline with Tween-80.
The mark [7] stands for this setting: dose: 400.0 mg/kg/injection, schedule: Q01DX001 (ip), vehicle: saline with Tween-80.
[8] abbreviates: dose: 50.0 mg/kg/injection, schedule: Q01DX009 (ip), vehicle: saline with Tween-80.

In the case of `Clc1ccccc1Br`, the T/C was 104 % of control (dose: 100.0 mg/kg/injection, schedule: Q01DX007 (ip), vehicle: saline with Tween-80); 95 % of control under setting [1]; 98 % of control (dose: 200.0 mg/kg/injection, schedule: Q01DX007 (ip), vehicle: saline with Tween-80); 96 % of control under setting [2]; 96 % of control (dose: 400.0 mg/kg/injection, schedule: Q01DX007 (ip), vehicle: saline with Tween-80); 98 % of control under setting [3].
As to `CN(N=O)C(=O)NCCSc1nc2ncncc2[nH]1`, the T/C (dose: 31.0 mg/kg/injection, schedule: Q01DX001 (ip), vehicle: carboxymethylcellulose (CMC)) was 87 % of control; the T/C (dose: 62.0 mg/kg/injection, schedule: Q01DX001 (ip), vehicle: carboxymethylcellulose (CMC)) was 103 % of control; the T/C (dose: 93.0 mg/kg/injection, schedule: Q01DX001 (ip), vehicle: carboxymethylcellulose (CMC)) was 106 % of control; the T/C (dose: 187.0 mg/kg/injection, schedule: Q01DX001 (ip), vehicle: carboxymethylcellulose (CMC)) is 103 % of control; the T/C (dose: 250.0 mg/kg/injection, schedule: Q01DX001 (ip), vehicle: carboxymethylcellulose (CMC)) is 103 % of control; the T/C (dose: 500.0 mg/kg/injection, schedule: Q01DX001 (ip), vehicle: carboxymethylcellulose (CMC)) was 115 % of control. Further, the T/C is, setting by setting: (dose: 750.0 mg/kg/injection, schedule: Q01DX001 (ip), vehicle: carboxymethylcellulose (CMC)) 123 % of control; (dose: 1000.0 mg/kg/injection, schedule: Q01DX001 (ip), vehicle: carboxymethylcellulose (CMC)) 117 % of control.
Take `COc1cc(C(=O)Nc2ccc(NC3=NCCN3)cc2)cc(C(=O)Nc2ccc(NC3=NCCN3)cc2)c1`: the T/C (dose: 1.9 mg/kg/injection, schedule: Q01DX Z (ip), vehicle: methylcellulose (MC)) is 104 % of control; the T/C (dose: 3.8 mg/kg/injection, schedule: Q01DX Z (ip), vehicle: methylcellulose (MC)) was 99 % of control; the T/C (dose: 7.5 mg/kg/injection, schedule: Q01DX Z (ip), vehicle: methylcellulose (MC)) was 113 % of control; the T/C (dose: 15.0 mg/kg/injection, schedule: Q01DX Z (ip), vehicle: methylcellulose (MC)) is 118 % of control.
Take `Cc1cc(Cl)cc(C)c1O`: the T/C (dose: 75.0 mg/kg/injection, schedule: Q04DX003 (ip), vehicle: saline) was 114 % of control; the T/C (dose: 150.0 mg/kg/injection, schedule: Q04DX003 (ip), vehicle: saline) is 100 % of control; the T/C (dose: 300.0 mg/kg/injection, schedule: Q04DX003 (ip), vehicle: saline) was 112 % of control.
As for `COC(=O)CCC(C)(C)[N+](=O)[O-]`, the T/C by setting is: (dose: 100.0 mg/kg/injection, schedule: Q01DX009 (ip), vehicle: saline) 113 % of control; (dose: 200.0 mg/kg/injection, schedule: Q01DX009 (ip), vehicle: saline) 104 % of control; (dose: 400.0 mg/kg/injection, schedule: Q01DX009 (ip), vehicle: saline) 102 % of control.
As to `NC(=O)C1CCC(C(N)=O)CC1` (stereo not drawn), the T/C by setting is: under setting [4], 106 % of control; (dose: 100.0 mg/kg/injection, schedule: Q01DX009 (ip), vehicle: saline with Tween-80) 100 % of control; under setting [1], 100 % of control; under setting [5], 98 % of control; under setting [6], 100 % of control; under setting [2], 115 % of control. Besides, the T/C was 98 % of control under setting [7]; 107 % of control (dose: 400.0 mg/kg/injection, schedule: Q01DX009 (ip), vehicle: saline with Tween-80); 102 % of control under setting [3].
`O=Cc1[nH]c(=S)[nH]c(=O)c1Cc1c(Cl)cccc1Cl`: the T/C reads like this: under setting [4], 101 % of control; under setting [5], 101 % of control; under setting [7], 106 % of control.
As to `CNS(=O)(=O)c1ncnc2nc[nH]c12`, the T/C (dose: 3.0 mg/kg/injection, schedule: Q01DX Z (ip), vehicle: carboxymethylcellulose (CMC)) is 113 % of control; the T/C (dose: 6.0 mg/kg/injection, schedule: Q01DX Z (ip), vehicle: carboxymethylcellulose (CMC)) is 115 % of control; the T/C (dose: 12.0 mg/kg/injection, schedule: Q01DX Z (ip), vehicle: carboxymethylcellulose (CMC)) is 119 % of control; the T/C (dose: 22.0 mg/kg/injection, schedule: Q01DX Z (ip), vehicle: carboxymethylcellulose (CMC)) is 100 % of control; the T/C (dose: 25.0 mg/kg/injection, schedule: Q01DX Z (ip), vehicle: carboxymethylcellulose (CMC)) is 117 % of control; the T/C (dose: 33.0 mg/kg/injection, schedule: Q01DX Z (ip), vehicle: carboxymethylcellulose (CMC)) was 100 % of control. In addition, the T/C by setting is: under setting [8], 115 % of control; (dose: 50.0 mg/kg/injection, schedule: Q01DX Z (ip), vehicle: carboxymethylcellulose (CMC)) 121 % of control; (dose: 75.0 mg/kg/injection, schedule: Q01DX Z (ip), vehicle: carboxymethylcellulose (CMC)) 121 % of control; (dose: 100.0 mg/kg/injection, schedule: Q01DX001 (ip), vehicle: acetone) 100 % of control; (dose: 132.0 mg/kg/injection, schedule: Q01DX001 (ip), vehicle: saline) 112 % of control and 88 % of control; (dose: 132.0 mg/kg/injection, schedule: Q01DX009 (ip), vehicle: saline with Tween-80) 112 % of control. The T/C reads like this: (dose: 132.0 mg/kg/injection, schedule: Q01DX009 (ip), vehicle: saline) 110 % of control; (dose: 132.0 mg/kg/injection, schedule: Q04DX003 (ip), vehicle: saline) 121 % of control; (dose: 200.0 mg/kg/injection, schedule: Q01DX001 (ip), vehicle: acetone) 182 % of control; (dose: 200.0 mg/kg/injection, schedule: Q01DX001 (ip), vehicle: saline) 103 % of control and 108 % of control; under setting [6], 162 % of control; (dose: 200.0 mg/kg/injection, schedule: Q04DX003 (ip), vehicle: saline) 122 % of control. The T/C runs as follows: (dose: 300.0 mg/kg/injection, schedule: Q01DX001 (ip), vehicle: saline) 101 % of control and 103 % of control; (dose: 300.0 mg/kg/injection, schedule: Q01DX009 (ip), vehicle: saline) 117 % of control.
As to `CCCCCCCCOC(=O)CCCc1ccc(N(CCCl)CCCl)cc1`, the T/C is 104 % of control (dose: 100.0 mg/kg/injection, schedule: Q04DX002 (ip), vehicle: saline); 108 % of control (dose: 200.0 mg/kg/injection, schedule: Q04DX002 (ip), vehicle: saline); 111 % of control (dose: 400.0 mg/kg/injection, schedule: Q04DX002 (ip), vehicle: saline).
On to `O=C(C#CC(=O)[O][Sn]([c]1ccccc1)([c]1ccccc1)[c]1ccccc1)[O][Sn]([c]1ccccc1)([c]1ccccc1)[c]1ccccc1`, for which the T/C runs as follows: (dose: 6.25 mg/kg/injection, schedule: Q01DX001 (ip), vehicle: saline) 90 % of control; (dose: 12.5 mg/kg/injection, schedule: Q01DX001 (ip), vehicle: saline) 95 % of control; (dose: 25.0 mg/kg/injection, schedule: Q01DX001 (ip), vehicle: saline) 100 % of control; (dose: 35.0 mg/kg/injection, schedule: Q01DX001 (ip), vehicle: Klucel (hydroxypropylcellulose) (HPC)) 91 % of control.
In the case of `ClC1=C(Cl)C2(Cl)C3C4CC(CC4Cl)C3C1(Cl)C2(Cl)Cl` (stereo not drawn), the T/C was 93 % of control (dose: 75.0 mg/kg/injection, schedule: Q01DX001 (ip), vehicle: steriod suspending solution); 90 % of control (dose: 150.0 mg/kg/injection, schedule: Q01DX001 (ip), vehicle: steriod suspending solution); 98 % of control (dose: 300.0 mg/kg/injection, schedule: Q01DX001 (ip), vehicle: steriod suspending solution).
On to `Nc1c(C(=O)O)cc(Br)c2c1C(=O)c1ccccc1C2=O`, for which the T/C reads like this: (dose: 100.0 mg/kg/injection, schedule: Q04DX003 (ip), vehicle: Klucel (hydroxypropylcellulose) (HPC)) 97 % of control; (dose: 200.0 mg/kg/injection, schedule: Q04DX003 (ip), vehicle: Klucel (hydroxypropylcellulose) (HPC)) 95 % of control.
On to `COc1ccc(/C=N/NC(=O)CNC(=O)Nc2cccc(Cl)c2)cc1`, for which the T/C under setting [8] was 87 % of control.
`CCCn1c2c(c(=O)n(CC)c1=O)SC(OCC)C(=O)N2` (stereo not drawn): the T/C (dose: 78.0 mg/kg/injection, schedule: Q01DX Z (ip), vehicle: other) was 96 % of control and 103 % of control; the T/C (dose: 116.0 mg/kg/injection, schedule: Q01DX Z (ip), vehicle: other) was 108 % of control and 110 % of control; the T/C (dose: 175.0 mg/kg/injection, schedule: Q01DX Z (ip), vehicle: other) is 116 % of control and 87 % of control; the T/C (dose: 262.5 mg/kg/injection, schedule: Q01DX Z (ip), vehicle: other) was 92 % of control.
